This is an account of results in PubChem BioAssay (NCI).

The structures appear in SMILES notation.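 Growth conditions: 96-well plates. Treatment: test compound, 48 hours, 5 concentrations. Analysis: linear interpolation between bracketing concentrations; unreached endpoints set to highest concentration. TGI: concentration producing complete growth inhibition.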 Bounds are passed on as bounds.

Test systems include K-562 leukemia; SW-620 colon; TK-10 renal; HCT-15 colon; HT29 colon; SN12C renal; NCI-H23 lung; 786-0 renal; RXF 393 renal; CAKI-1 renal.
Common to all, as to assay: DTP human tumour cell line panel, 48 h

For orientation: TGI means the concentration at which net growth stops. High values mean lower sensitivity of the cells, low ones greater sensitivity of the cells. On to `CC(=O)Nc1nnc(S(C)(=O)=O)s1`, for which the TGI in the assay on K-562 leukemia, with SW-620 colon, with TK-10 renal, in the assay with HCT-15 colon, in the assay on HT29 colon and with SN12C renal was over 100 µM each time. In addition, the TGI in the assay with NCI-H23 lung, in the assay on 786-0 renal and with RXF 393 renal was over 100 µM throughout.

As for `COc1cc(C2C(Cl)C(=O)N2NC(=O)c2ccc(N)cc2)cc(Br)c1O` (stereo unspecified), the TGI with K-562 leukemia is 48.7 µM; with SW-620 colon, 35.1 µM; with TK-10 renal, 32.5 µM; with HCT-15 colon, 28.8 µM; in the assay with HT29 colon, 41.9 µM; in the assay on SN12C renal it was 33.4 µM. Moreover, the TGI with NCI-H23 lung was found to be 35.1 µM; in the assay on 786-0 renal, 26 µM; in the assay on CAKI-1 renal it was 30.7 µM.

Regarding `Brc1ccc2c(c1)-c1nc3nc4c(cc3cc1CC2)CCc1ccc(Br)cc1-4`, the TGI in the assay on K-562 leukemia, in the assay on SW-620 colon, with TK-10 renal, with HCT-15 colon, in the assay on SN12C renal and with NCI-H23 lung was over 100 µM in each case. The TGI in the assay on 786-0 renal, with RXF 393 renal and in the assay with CAKI-1 renal was over 100 µM throughout.

As for `O=C(NCCNCCCNC(=O)c1cc(-c2ccccc2)nc2ccccc12)c1cccc(OCc2ccccc2)c1OCc1ccccc1`, the TGI in the assay on K-562 leukemia was 3.48 µM; in the assay with SW-620 colon, 3.35 µM; with TK-10 renal, 3.17 µM; with HCT-15 colon, 3.25 µM; in the assay with HT29 colon, 2.98 µM; in the assay on SN12C renal it was 3.24 µM. In addition, the results for the TGI in the assay with NCI-H23 lung, in the assay with 786-0 renal and in the assay on CAKI-1 renal were 3.35 µM, 3.09 µM and 3.01 µM, respectively.

`CSC12c3cc(C)n(-c4ccccc4)c3CC(C)(C)CN1C(=O)C2Oc1ccccc1` (stereo unspecified): the TGI in the assay on K-562 leukemia, in the assay on SW-620 colon, in the assay on HCT-15 colon, in the assay on SN12C renal, in the assay on NCI-H23 lung and with 786-0 renal was over 100 µM in each case. In addition, the TGI with RXF 393 renal and in the assay with CAKI-1 renal was over 100 µM each time.

For the compound `CCOC1Oc2ccccc2-c2nc(SC)ncc21` (stereo unspecified), the TGI in the assay on SW-620 colon, with TK-10 renal, in the assay on HCT-15 colon, with HT29 colon, in the assay on SN12C renal and in the assay with NCI-H23 lung was over 100 µM throughout. Moreover, the TGI in the assay with 786-0 renal, in the assay on RXF 393 renal and in the assay on CAKI-1 renal was over 100 µM throughout.

On to `C=CCOC(=O)C1=C(CCC[C@@H](C)O[Si](C)(C)C(C)(C)C)N=C(N)N2[C@H](CCO)CC[C@@H]12`, for which the TGI is 21.5 µM in the assay on K-562 leukemia; 34.3 µM in the assay on TK-10 renal; 32.5 µM in the assay with HCT-15 colon; 31.7 µM in the assay with SN12C renal; 32.4 µM in the assay with NCI-H23 lung; 33.8 µM in the assay on 786-0 renal. For the same compound, the TGI with CAKI-1 renal was determined as 26.1 µM.

Consider `Nc1nc2c(ncn2Cc2ccccc2CO)c(=O)[nH]1`, for which the TGI in the assay with K-562 leukemia, in the assay with SW-620 colon, in the assay on TK-10 renal, with HCT-15 colon, with HT29 colon and with SN12C renal was over 100 µM in each case. The TGI with NCI-H23 lung, in the assay with 786-0 renal and with CAKI-1 renal was over 100 µM in each case.

As for `CC(C)(C)C1=CC(=C2C(=O)C(=O)c3ccccc3C2=O)C=C(C(C)(C)C)C1=O`, the TGI with K-562 leukemia, in the assay with SW-620 colon, in the assay on TK-10 renal, with HCT-15 colon, with HT29 colon and in the assay with SN12C renal was over 100 µM in each case. Further, the TGI with NCI-H23 lung, in the assay with 786-0 renal and in the assay with CAKI-1 renal was over 100 µM throughout.

For `COc1ccc(C(=O)/C=C/c2ccc(OCCSCCCCCCCCCCSCCOc3ccc(/C=C/C(=O)c4ccc(OC)c(OC)c4)cc3)cc2)cc1OC`, the TGI in the assay on K-562 leukemia, with SW-620 colon, in the assay with TK-10 renal, with HCT-15 colon, with HT29 colon and in the assay on SN12C renal was over 100 µM each time. In addition, the TGI with NCI-H23 lung, with 786-0 renal and with CAKI-1 renal was over 100 µM throughout.

As to `O=Cc1ccc(CCl)cc1`, the TGI was over 100 µM in the assay on K-562 leukemia; 52.1 µM in the assay with SW-620 colon; 45.5 µM in the assay on TK-10 renal; 31.9 µM in the assay on HCT-15 colon; 34.2 µM in the assay on HT29 colon; 31 µM with RXF 393 renal.

Regarding `O=C(OCc1ccccc1)N(CCCCN(CCCNCc1ccccc1)C(=O)OCc1ccccc1)CCCNCc1ccccc1`, the concentration for total growth inhibition (TGI) with SW-620 colon came to 0.39 µM; in the assay with TK-10 renal, 3.43 µM; in the assay on HCT-15 colon, 1.17 µM; with HT29 colon, 0.663 µM; with SN12C renal it was 0.886 µM; in the assay on NCI-H23 lung it was 3.4 µM. Besides, the TGI with 786-0 renal was 1.29 µM; with CAKI-1 renal, 2.93 µM.

`COC(=O)C1(C(=O)OC)N=C(C)OC1/C=C/c1ccccc1` (stereo unspecified): the TGI with K-562 leukemia, in the assay with SW-620 colon, in the assay with TK-10 renal, in the assay on HCT-15 colon, in the assay with SN12C renal and in the assay with NCI-H23 lung was over 100 µM throughout. Also, the total growth inhibition concentration (TGI) in the assay on 786-0 renal, with RXF 393 renal and in the assay with CAKI-1 renal was over 100 µM throughout.

As to `O=c1c2cc(Cl)cc(Cl)c2oc2nc3n(c(=O)c12)CCCS3`, the TGI with K-562 leukemia, in the assay on SW-620 colon, with TK-10 renal, in the assay on HCT-15 colon, in the assay on SN12C renal and in the assay on NCI-H23 lung was over 100 µM throughout. Further, the total growth inhibition concentration (TGI) with 786-0 renal, in the assay on RXF 393 renal and with CAKI-1 renal was over 100 µM each time.

On to `COC(=O)C(C/C=C(\C)c1ccc(Cl)cc1)C(C)=O` (stereo unspecified), for which the total growth inhibition concentration (TGI) in the assay with K-562 leukemia was over 100 µM; with SW-620 colon it was over 100 µM; in the assay with HCT-15 colon, over 100 µM; in the assay on HT29 colon, over 77.1 µM; with SN12C renal, over 100 µM; in the assay with NCI-H23 lung, over 100 µM. This compound also showed a TGI in the assay with RXF 393 renal of over 95.9 µM.
